Results published in patent publication US20240287172A1, “PROTEIN BINDERS TO IRHOM2 EPITOPES” (SCIRHOM GMBH, priority 2019, published 2024).

System: LPS-induced release of endogenous TNFα from human macrophages from healthy donors
Assay: ELISA-based TNFα release assay, LPS-induced, human macrophages from healthy donors
Assay type: cell-based
Conditions: Macrophage, LPS 5 ng/ml, 2 hours, recombinant murine antibodies at 10 μg/ml, Batimastat at 10 μM
Experimental: To obtain human macrophages, peripheral blood mononuclear cells (PBMCs) from 4 healthy donors were used. Cells from 5 ml human blood were resuspended in 20 ml of DMEM medium (Corning, USA) supplemented with 10% FCS (Atlanta Biological, USA) and Penicillin/Streptomycin (Corning, USA) (DMEM/FCS) and were then incubated on two 10 cm petri dishes (Thermo Fisher, USA) at 37° C., 5% CO2 for 3h. Non-adherent cells were subsequently removed and 6 ml of DMEM/FCS supplemented with 10 ng/ml human MCSF (Peprotech, USA) (DMEM/FCS/MCSF) was added per plate. Both plates were incubated at 37° C., 5% CO2 for 2 days, then 2 ml of DMEM/FCS/MCSF was added to each plate on day 2 and 4. On day 5, all medium was removed and attached cells were washed once with 5 ml PBS (Corning, USA). 2 ml of Accutase (Promocell, USA) solution was added to each plate and incubated at 37° C. for 15 min. 10 ml of DMEM/FCS was added to each plate and detached cells were collected in a 15 ml Falcon tube. Cells were subsequently pelleted in a tabletop centrifuge (Eppendorf, USA) at 1,500 rpm for 5 min. The medium was removed and the cells were resuspended in 2 ml of DMEM/FCS. 10 μl from this cell suspension was manually counted in a hemocytometer (Thermo Fisher, USA). […]

CNC(=O)[C@H](Cc1ccccc1)NC(=O)[C@H](CC(C)C)[C@H](CSc1cccs1)C(=O)NO [Batimastat]
inhibition at 10 µM: 68.3%
